Measured values reported in patent US20060217305A1, “Induction of tumor cell senescence by retinoid receptor agonists and antagonists” (Ordway Research Institute, Inc., priority 2005, published 2006).
“Also recorded” adds a separate entry of the source. Where two headings read alike, the source gives them in different places.

Key:
Type in all cases: cell-based, human
[1] = test system: retinoid-inducible genes EPLIN, UBD, IGFBP3, TGFB1 and TRIM31 in MCF-7 cells (subline MCF-7 3′SS6); assay: real-time RT-PCR (QPCR) of retinoid-inducible gene expression, 2 days treatment; settings: for Fold induction EPLIN / Fold induction IGFBP3 / Fold induction TGFBI / Fold induction TRIM31 / Fold induction UBD / fold induction at 0.1 µM: 2 days, MCF-7; for fold induction at 0.1 µM: Homo sapiens, MCF7, 48 h
From the text: The following compounds were obtained from Ligand Pharmaceuticals (San Diego, Calif.). LGD1550 is a pan-RAR agonist. LGD1268 is a pan-RXR agonist. LG100815 is a pan-RAR antagonist. LG101208 is a pan-RXR antagonist. The LG100815 compound is a specific RAR antagonist that binds to RAR, but fails to activate its Retinoic Acid Responsive Element (RARE)-dependent transcription transactivation function (see Lee et al, Mol. Cell Biol. 19: 1973-1980 (1999)). Also used was all-trans retinoic acid (RA), the most commonly used RAR agonist. To determine how these compounds affect the expression of retinoid-inducible growth inhibitory genes EPLIN, UBD, IGFBP3 and TGFB1, as well as TRIM31 gene that contains a putative RARE element in its promoter, MCF-7 cells (subline MCF-7 3′SS6) were treated with individual compounds or their combinations for 2 days, and RNA was extracted by standard procedures. In the initial assays, gene expression was analyzed by semi-quantitative reverse transcription-PCR (RT-PCR), as described in Dokmanovic et al., Cancer Biology & Therapy 1:24-27 (2002). In subsequent assays, the initial results were confirmed, expanded and quantitated by real-time RT-PCR (QPCR), using Applied BioSystems 7900HT real-time PCR instrument. β-actin was used as a normalization standard.
cDNA was prepared by reverse transcription with random primer using 4 μg total RNA. 5 μl SYBR Green PCR Master Mix (Applied Biosystems) was mixed with […] cDNA and 0.8 pmol of gene-specific primers and brought up to 10 μl with ultra pure H2O in 384-well optical plates. For amplification, reaction mixtures were heated for 2 min at 50° C. and 10 min at 95° C., followed by 40 cycles of two-step PCR consisting of 15 sec at 95° C. and 1 min at 60° C., to construct dissociation curves and verify that single PCR products were obtained. PCR products were also analyzed by gel electrophoresis to confirm that a single product of the expected size was amplified. […] The comparative CT method for relative quantitation of gene expression described by Applied Biosystems was used to determine expression levels for target genes. Experiments were carried out in triplicate for each data point. Sequence Detection Systems software version 2.1 (Applied Biosystems) and Microsoft Excel were used for data analysis.

MCF-7 cells [2] = assay: MCF-7 cell growth, cell number after 7 days; settings: 100 nM RA, LGD1550, LGD1268, 10 μM LG100815, LG101208
Method: The bars represent cell number after 7 days of culture with the addition of DMSO (control), 100 nM RA, 100 nM RAR agonist LGD1550, 100 nM RXR agonist LGD1268, 10 μM RAR antagonist LG100815, and 10 μM RXR antagonist LG101208. Experiments were done in triplicate, and the results are expressed relative to the average of the control.
(§1) To test this, we have analyzed the effects of different compounds on the growth of MCF-7 cells, as measured by the cell number after 7 days exposure to the compounds (FIG. 2) and on the fraction of cells expressing the senescence-associated β-galactosidase activity (SA-β-gal), a marker of senescence, after 7-day treatment with the compounds (FIG. 3).

MCF-7 cells [3] = assay: senescence-associated β-galactosidase (SA-β-gal) positive cells; settings: 7-day treatment (FIG. 3 legend: 8 days); concentrations as in FIG. 2
From the text: The bars represent percentages of SA-β-gal+ cells after 8 days of treatment with the indicated compounds (in triplicate). The compounds were used at the same concentrations as in FIG. 2.
as §1

[4] = test system: DR5 RARE-containing promoter in MCF-7 cells; assay: DR5-luciferase transient transfection assay (RARE-dependent transcription); settings: 100 nM, 24 hrs
Method: The assays were carried out in triplicate. RA is all-trans retinoic acid. LGD1550 is a pan-RAR agonist. LG100815 is a pan-RAR antagonist.
To confirm the ability of LG100815 to antagonize RARE-dependent induction of transcription analysis of firefly luciferase expression from a RARE-containing artificial promoter DR5 (Stratagene, catalog number 240119) was performed. Cells were plated to the density of 3×10^5 in P60 24 hrs before transient transfection. DR5 reporter plasmid (4 μg) was mixed with the SV40-driven-Renilla luciferase control plasmid (0.04 μg) and transfected using Lipofectamine Plus (Life Technologies/Invitrogen, Carlsbad, Calif.) as described by the manufacturer. 3 hrs after transfection, cells were rinsed three times with PBS, trypsinized and replated in a 12-well plate to the density of 5×10^4 cells per well. Retinoid agonists and antagonists were added 48 hrs later, and the luciferase assay was performed after another 24 hrs.

Cc1cc2c(cc1C1(c3ccc(C(=O)O)cn3)CC1)C(C)(C)CCC2(C)C [LGD1268]
Fold induction EPLIN ([1]; 100 nM): 1.2 ± 0.2 fold
Fold induction IGFBP3 ([1]; 100 nM): 1.2 ± 0.5 fold
Fold induction TGFBI ([1]; 100 nM): 1.9 ± 1.1 fold
Fold induction TRIM31 ([1]; 100 nM): 1.3 ± 0.4 fold
Fold induction UBD ([1]; 100 nM): 1.0 ± 0.1 fold
Fold induction EPLIN ([1]; 1 μM): 1.0 ± 0.1 fold
Fold induction IGFBP3 ([1]; 1 μM): 0.9 ± 1.1 fold
Fold induction TGFBI ([1]; 1 μM): 2.2 ± 1.0 fold
Fold induction TRIM31 ([1]; 1 μM): 1.4 ± 0.7 fold
Fold induction UBD ([1]; 1 μM): 0.8 ± 0.2 fold
Fold induction EPLIN ([1]; 10 μM): 1.4 ± 0.2 fold
Fold induction IGFBP3 ([1]; 10 μM): 1.2 ± 0.4 fold
Fold induction TGFBI ([1]; 10 μM): 2.4 ± 0.3 fold
Fold induction TRIM31 ([1]; 10 μM): 3.8 ± 0.7 fold
Fold induction UBD ([1]; 10 μM): 1.0 ± 0.2 fold
effect on expression of the five genes (IGFBP3, EPLIN, UBD, TGFB1, TRIM31) ([1]; summary of Table 2, MCF-7): induced only one of five genes (TGFB1)
effect on MCF-7 cell growth (cell number) (MCF-7 cells [2]): did not inhibit cell growth; also recorded: modest but reproducible increase in cell growth
induction of senescent phenotype (SA-β-gal+ cells) (MCF-7 cells [3]): did not induce the senescent phenotype

CC1=C(/C=C/C(C)=C/C=C/C(C)=C/C(=O)O)C(C)(C)CCC1 [RA, all-trans retinoic acid]
ratio of the fold-induction of TGFB1 relative to TRIM31 ([1]; 100 nM): 0.19
fold induction at 0.1 µM ([1]; 100 nM, read-out: Fold induction EPLIN): 3.1 ± 0.7
fold induction at 0.1 µM ([1]; 100 nM, read-out: Fold induction IGFBP3): 2.5 ± 0.5
fold induction at 0.1 µM ([1]; 100 nM, read-out: Fold induction TGFBI): 6.5 ± 1.4
fold induction at 0.1 µM ([1]; 100 nM, read-out: Fold induction TRIM31): 34.4 ± 3.9
fold induction at 0.1 µM ([1]; 100 nM, read-out: Fold induction UBD): 8.5 ± 2.8
induction of luciferase expression from DR5 RARE-containing promoter [4]: approximately 50 fold
